How the values were obtained:
HORMU = assay: Post-emergence herbicidal action against HORMU; assay type: in vivo, Hordeum murinum; settings: application rate 80 g/ha
Protocol: (§1) [table] 2. Post-emergence herbicidal action against harmful plants and crop plant compatibility Seeds of monocotyledonous and dicotyledonous weeds and crop plants are placed in sandy loam in plastic or wood-fibre pots, covered with soil and cultivated in a greenhouse under controlled growth conditions. 2 to 3 weeks after sowing, the test plants are treated at the one-leaf stage. The compounds of the invention, formulated in the form of wettable powders (WP) or as emulsion concentrates (EC), are then sprayed onto the green parts of the plants as aqueous suspension or emulsion with addition of 0.5% additive at a water application rate of 600 l/ha (converted). After the test plants have been kept in the greenhouse under optimum growth conditions for about 3 weeks, the activity of the preparations is rated visually in comparison to untreated controls. For example, 100% activity=the plants have died, 0% activity=like control plants.

PHBPU = assay: Post-emergence herbicidal action against PHBPU; assay type: in vivo, Pharbitis purpurea; settings: application rate 80 g/ha, rated visually about 3 weeks after treatment
Protocol: as §1

AMARE = assay: Post-emergence herbicidal action against AMARE; assay type: in vivo, Amaranthus retroflexus; settings: application rate 80 g/ha, rated visually about 3 weeks after treatment
Protocol: as §1

LOLRI = assay: Post-emergence herbicidal action against LOLRI; assay type: in vivo, Lolium rigidum; settings: application rate 80 g/ha, rated visually after about 3 weeks
Protocol: as §1

VERPE = assay: Post-emergence herbicidal action against VERPE; assay type: in vivo, Veronica persica; settings: application rate 80 g/ha
Protocol: as §1

AVEFA = assay: Post-emergence herbicidal action against AVEFA; assay type: in vivo, Avena fatua; settings: application rate 80 g/ha, rated visually after about 3 weeks
Protocol: as §1

ALOMY = assay: Post-emergence herbicidal action against ALOMY; assay type: in vivo, Alopecurus myosuroides; settings: application rate 80 g/ha, rated visually after about 3 weeks
Protocol: as §1

STEME = assay: Post-emergence herbicidal action against STEME; assay type: in vivo, Stellaria media; settings: application rate 80 g/ha, rated visually about 3 weeks after treatment
Protocol: as §1

ECHCG = assay: Post-emergence herbicidal action against ECHCG; assay type: in vivo, Echinochloa crus-galli; settings: application rate 80 g/ha, rated visually after about 3 weeks
Protocol: as §1

SETVI = assay: Post-emergence herbicidal action against SETVI; assay type: in vivo, Setaria viridis; settings: application rate 80 g/ha, rated visually after about 3 weeks
Protocol: as §1

POLCO = assay: Post-emergence herbicidal action against POLCO; assay type: in vivo, Polygonum convolvulus; settings: application rate 80 g/ha, rated visually about 3 weeks after treatment
Protocol: as §1

ABUTH = assay: Post-emergence herbicidal action against ABUTH; assay type: in vivo, Abutilon theophrasti; settings: application rate 80 g/ha, rated visually about 3 weeks after treatment
Protocol: as §1

| Compound | Herbicidal action against [%] HORMU (HORMU) [%] | Herbicidal action against [%] PHBPU (PHBPU) [%] | Herbicidal action against [%] AMARE (AMARE) [%] | Herbicidal action against [%] LOLRI (LOLRI) [%] | Herbicidal action against [%] VERPE (VERPE) [%] | Herbicidal action against [%] AVEFA (AVEFA) [%] | Herbicidal action against [%] ALOMY (ALOMY) [%] | Herbicidal action against [%] STEME (STEME) [%] | Herbicidal action against [%] ECHCG (ECHCG) [%] | Herbicidal action against [%] SETVI (SETVI) [%] | Herbicidal action against [%] POLCO (POLCO) [%] | Herbicidal action against [%] ABUTH (ABUTH) [%] |
| --- | --- | --- | --- | --- | --- | --- | --- | --- | --- | --- | --- | --- |
| Cc1cc(C2=NOC(C(=O)NC3C=CC(C(=O)OCCCl)C3)(C(F)(F)F)C2)cc(C(F)(F)F)c1 (mixture of isomers) [Example I-049] | 90 | 90 | 90 | 90 | 80 | 90 | 90 | – | – | – | – | – |
| CC1(C(=O)NC2C=CC(C(=O)NC(C)(C)C(F)(F)F)C2)CC(c2cc(F)cc(F)c2)=NO1 (mixture of isomers) [II-08] | – | 90 | – | – | 80 | – | 80 | 90 | – | – | – | – |
| C=CC1(C(=O)NC2C=CC(C(=O)NS(=O)(=O)CC(=O)OC)C2)CC(c2cc(F)cc(F)c2)=NO1 (mixture of isomers) [II-18] | 90 | 80 | 80 | 80 | 80 | 100 | 100 | 80 | 80 | 90 | – | – |
| O=C(C1C=CC(NC(=O)C2(C(F)(F)F)CC(c3cc(F)cc(F)c3)=NO2)C1)N1CCCO1 (mixture of isomers) [II-32] | 90 | – | 80 | 90 | 80 | 90 | 90 | 90 | 90 | 80 | 90 | 80 |
| C=CC1(C(=O)NC2CC=C(C(=O)NS(N)(=O)=O)C2)CC(c2cc(F)cc(F)c2)=NO1 (mixture of isomers) [IV-10] | 90 | 90 | 80 | 90 | – | 90 | – | – | 90 | – | – | – |
| C=CC1(C(=O)NC2C=CC(C(=O)NC(C)(C)C(F)(F)F)C2)CC(c2cc(F)cc(F)c2)=NO1 (single isomer, unassigned) [II-24] | – | 80 | – | – | 80 | – | – | – | – | – | – | – |
| COC(=O)[C@@H]1C=C[C@H](NC(=O)C2(C(F)(F)F)CC(c3ccccc3)=NO2)C1 (stereo partly drawn) [Example I-026] | 90 | 80 | 90 | 90 | 80 | 100 | 100 | 80 | 80 | 90 | 80 | – |
| O=C(OCC(F)(F)F)[C@@H]1C=C[C@H](NC(=O)C2(C(F)(F)F)CC(c3ccccc3)=NO2)C1 (stereo partly drawn) [Example I-030] | 90 | 80 | 90 | 100 | 80 | 100 | 90 | – | 80 | 90 | 90 | – |
| CC(C)(C)OC(=O)[C@@H]1C=C[C@H](NC(=O)C2(C)CC(c3cccc(C#N)c3)=NO2)C1 (stereo partly drawn) [Example I-095] | – | 90 | – | – | 80 | – | 90 | – | – | – | 90 | – |
| C=CC1(C(=O)N[C@H]2C=C[C@H](C(=O)NC(C)(C)C#N)C2)CC(c2cc(F)cc(F)c2)=NO1 (stereo partly drawn) [II-19] | – | 90 | – | – | – | – | – | – | – | – | – | – |

— patent US12319664B2, “Herbicidally active 3-phenylisoxazoline-5-carboxamides of cyclopentenylcarboxylic acid derivatives” (Bayer Aktiengesellschaft, priority 2018, dated 2025)
